Laboratory results: patent US20230021483A1, “[…] […] METHOD AND CLASSIFICATION OF PHARMACEUTICAL COMPONENTS BY USING TRANSCRIPTOMES” (National Institutes of Biomedical Innovation, Health and …, priority 2016, published 2023)

System: preferentially upregulated genes in LV, SP, LN
Assay: Z-score-based differential gene expression analysis (adjuvant group- or adjuvant-associated genes, 40 module mapping, TargetMine annotation)
Assay type: in vivo, C57BL/6 mice
Conditions: ID, LV
From the text: Each sample's FC value was converted into a z-score on a gene basis by using the entire data set for each organ. The Z-score of the triplicates of interest were summed for each adjuvant. For example, the three sample z-score in the LV sample following cdiGMP administration was summed on a gene-by-gene basis, after which the summed scores of >3 genes were selected as relatively preferentially expressed genes in the LV after cdiGMP administration. The following threshold was applied for selections. […] G2^LV: ALM_IP(z>1) & bCD(z>1) & ENDCN(z>1) & FCA(z>1). […] G4^LV: MALP2s(z>3). […] G2^SP: ENDCN_x2+ENDCN_x3(z>2) & ALM_IP(z>3) & bCD(z>3). […] G4^SP: ADX_ID_x2+ADX_ID_x3(z>2) & ADX_IP(z>3) & MALP2s(z>3). […] G2^LN: bCD(z>3) & FCA(z>3). […] G5^LN: K3(z>1.5) & K3SPG_x1+K3SPG_x2(z>1) & D35_x1+D35_x3(z>1). G6^LN: AddaVax(z>3).

Substance: Poly_IC
- Adar 1425405_a_at (Group G1, Modules 20) (sample x1): 3.45
- Adar 1434268_at (Group G1, Modules 20) (sample x1): 2.82
- Ddx58 1436562_at (Group G1, Modules 20) (sample x1): 2.92
- Ddx58 1456890_at (Group G1, Modules 20) (sample x1): 3.02
- Eif2ak2 1422005_at (Group G1, Modules 20) (sample x1): 2.89
- G3bp2 1421323_a_at (Group G1, Modules 20) (sample x1): 2.83
- Gm9706///Isg15 1431591_s_at (Group G1, Modules 20) (sample x1): 3.28
- H2-T10///H2-T22///H2-T9 1449875_s_at (Group G1, Modules 20) (sample x1): 2.89
- Ifih1 1426276_at (Group G1, Modules 20) (sample x1): 3.06
- Ifit1 1450783_at (Group G1, Modules 20) (sample x1): 2.54
- Ifit3 1449025_at (Group G1, Modules 20) (sample x1): 3.24
- Irf7 1417244_a_at (Group G1, Modules 20) (sample x1): 3.53
- Irgm1 1418825_at (Group G1, Modules 20) (sample x1): 2.78
- Mndal 1426906_at (Group G1, Modules 20) (sample x1): 3.14
- Pml 1448757_at (Group G1, Modules 20) (sample x1): 3.58
- Pml 1456103_at (Group G1, Modules 20) (sample x1): 3.26
- Rnf213 1455500_at (Group G1, Modules 20) (sample x1): 2.64
- Rsad2 1436058_at (Group G1, Modules 20) (sample x1): 3
- Shisa5 1423986_a_at (Group G1, Modules 20) (sample x1): 2.5
- Shisa5 1437503_a_at (Group G1, Modules 20) (sample x1): 2.49
- Stat1 1450033_a_at (Group G1, Modules 20) (sample x1): 2.73
- Stat1 1450034_at (Group G1, Modules 20) (sample x1): 2.89
- Tdrd7 1426716_at (Group G1, Modules 20) (sample x1): 3.28
- Tor1aip2 1418115_s_at (Group G1, Modules 20) (sample x1): 2.38
- Tor1aip2 1418116_at (Group G1, Modules 20) (sample x1): 2.73
- Tor1aip2 1435526_at (Group G1, Modules 20) (sample x1): 2.88
- Trim12a 1437432_a_at (Group G1, Modules 20) (sample x1): 3.39
- Uba7 1426970_a_at (Group G1, Modules 20) (sample x1): 3
- Adar 1425405_a_at (Group G1, Modules 20) (sample x2): 2.75
- Adar 1434268_at (Group G1, Modules 20) (sample x2): 2.17
- Ddx58 1436562_at (Group G1, Modules 20) (sample x2): 2.82
- Ddx58 1456890_at (Group G1, Modules 20) (sample x2): 2.77
- Eif2ak2 1422005_at (Group G1, Modules 20) (sample x2): 2.87
- G3bp2 1421323_a_at (Group G1, Modules 20) (sample x2): 2.85
- Gm9706///Isg15 1431591_s_at (Group G1, Modules 20) (sample x2): 3.62
- H2-T10///H2-T22///H2-T9 1449875_s_at (Group G1, Modules 20) (sample x2): 3.28
- Ifih1 1426276_at (Group G1, Modules 20) (sample x2): 3.34
- Ifit1 1450783_at (Group G1, Modules 20) (sample x2): 2.35
- Ifit3 1449025_at (Group G1, Modules 20) (sample x2): 3.25
- Irf7 1417244_a_at (Group G1, Modules 20) (sample x2): 3.38
- Irgm1 1418825_at (Group G1, Modules 20) (sample x2): 2.84
- Mndal 1426906_at (Group G1, Modules 20) (sample x2): 2.4
- Pml 1448757_at (Group G1, Modules 20) (sample x2): 3.3
- Pml 1456103_at (Group G1, Modules 20) (sample x2): 2.5
- Rnf213 1455500_at (Group G1, Modules 20) (sample x2): 3.01
- Rsad2 1436058_at (Group G1, Modules 20) (sample x2): 3.3
- Shisa5 1423986_a_at (Group G1, Modules 20) (sample x2): 2.99
- Shisa5 1437503_a_at (Group G1, Modules 20) (sample x2): 2.66
- Stat1 1450033_a_at (Group G1, Modules 20) (sample x2): 2.67
- Stat1 1450034_at (Group G1, Modules 20) (sample x2): 3.04
- Tdrd7 1426716_at (Group G1, Modules 20) (sample x2): 3.24
- Tor1aip2 1418115_s_at (Group G1, Modules 20) (sample x2): 2.68
- Tor1aip2 1418116_at (Group G1, Modules 20) (sample x2): 2.94
- Tor1aip2 1435526_at (Group G1, Modules 20) (sample x2): 2.62
- Trim12a 1437432_a_at (Group G1, Modules 20) (sample x2): 3.59
- Uba7 1426970_a_at (Group G1, Modules 20) (sample x2): 3.13
- Adar 1425405_a_at (Group G1, Modules 20) (sample x3): 1.58
- Adar 1434268_at (Group G1, Modules 20) (sample x3): 1.28
- Ddx58 1436562_at (Group G1, Modules 20) (sample x3): 1.64
- Ddx58 1456890_at (Group G1, Modules 20) (sample x3): 1.87
- Eif2ak2 1422005_at (Group G1, Modules 20) (sample x3): 1.83
- G3bp2 1421323_a_at (Group G1, Modules 20) (sample x3): 1.31
- Gm9706///Isg15 1431591_s_at (Group G1, Modules 20) (sample x3): 2.13
- H2-T10///H2-T22///H2-T9 1449875_s_at (Group G1, Modules 20) (sample x3): 2.21
- Ifih1 1426276_at (Group G1, Modules 20) (sample x3): 2.12
- Ifit1 1450783_at (Group G1, Modules 20) (sample x3): 1.28
- Ifit3 1449025_at (Group G1, Modules 20) (sample x3): 1.95
- Irf7 1417244_a_at (Group G1, Modules 20) (sample x3): 2.38
- Irgm1 1418825_at (Group G1, Modules 20) (sample x3): 1.84
- Mndal 1426906_at (Group G1, Modules 20) (sample x3): 2.37
- Pml 1448757_at (Group G1, Modules 20) (sample x3): 2
- Pml 1456103_at (Group G1, Modules 20) (sample x3): 2.12
- Rnf213 1455500_at (Group G1, Modules 20) (sample x3): 1.47
- Rsad2 1436058_at (Group G1, Modules 20) (sample x3): 1.97
- Shisa5 1423986_a_at (Group G1, Modules 20) (sample x3): 1.61
- Shisa5 1437503_a_at (Group G1, Modules 20) (sample x3): 1.52
- Stat1 1450033_a_at (Group G1, Modules 20) (sample x3): 1.92
- Stat1 1450034_at (Group G1, Modules 20) (sample x3): 1.94
- Tdrd7 1426716_at (Group G1, Modules 20) (sample x3): 1.44
- Tor1aip2 1418115_s_at (Group G1, Modules 20) (sample x3): 1.13
- Tor1aip2 1418116_at (Group G1, Modules 20) (sample x3): 0.96
- Tor1aip2 1435526_at (Group G1, Modules 20) (sample x3): 1.58
- Trim12a 1437432_a_at (Group G1, Modules 20) (sample x3): 2.9
- Uba7 1426970_a_at (Group G1, Modules 20) (sample x3): 1.71
